Laboratory results as given in patent US20050220779A1, “Integrin linked kinase modulation of macrophage activation” (priority 2001, published 2005).

Tests used:
[1] = system: C57BL/6 cells (primary peritoneal macrophages); assay: Cell survival by crystal violet staining, C57BL/6 cells; assay type: cell-based; details: 50 μM, 24 h, DMSO-treated = 100%
Description: Treatment of primary macrophages and RAW 264.7 cells. […] Following 3 h incubation, at 37 C, 5% CO2 (macrophages were allowed to attach) cells were stimulated with LPS (0.5 μg/ml) and IFN-γ (100 U/ml) in the absence or presence of various concentrations of ILK inhibitors (all treatments were replicated six times). Cells were incubated for an additional 24 h, and cell free culture supernatants from each well were collected for NO and cytokine determination. The remaining cells were stained with crystal violet to determine effect of the inhibitors on cell survival.
Effect of ILK Inhibitors on suppression of NO production and cell survival. Twenty-four hours following treatment with the ILK inhibitors, aliquots from the cell-free supernatants were assayed for NO and IL-6 release. Surviving cells were stained and fixed (crystal violet 0.05% in 20% ethanol), to determine if the decrease in NO production was related to a decrease in cell number due to toxicity of the compounds.

[2] = target: T1, integrin linked kinase (full-length recombinant GST-ILK) (Homo sapiens, UniProt Q13418); assay: ILK kinase inhibition assay (phosphocellulose filter, scintillation counting); assay type: biochemical
T1 construct: The target integrin linked kinase is a full-length recombinant protein expressed in sF9 insect cells; made in house; host or cells: baculovirus; virus amplified in Sf9, protein expressed in Hi5 insect cells
T1 sequence (Q13418 1-452): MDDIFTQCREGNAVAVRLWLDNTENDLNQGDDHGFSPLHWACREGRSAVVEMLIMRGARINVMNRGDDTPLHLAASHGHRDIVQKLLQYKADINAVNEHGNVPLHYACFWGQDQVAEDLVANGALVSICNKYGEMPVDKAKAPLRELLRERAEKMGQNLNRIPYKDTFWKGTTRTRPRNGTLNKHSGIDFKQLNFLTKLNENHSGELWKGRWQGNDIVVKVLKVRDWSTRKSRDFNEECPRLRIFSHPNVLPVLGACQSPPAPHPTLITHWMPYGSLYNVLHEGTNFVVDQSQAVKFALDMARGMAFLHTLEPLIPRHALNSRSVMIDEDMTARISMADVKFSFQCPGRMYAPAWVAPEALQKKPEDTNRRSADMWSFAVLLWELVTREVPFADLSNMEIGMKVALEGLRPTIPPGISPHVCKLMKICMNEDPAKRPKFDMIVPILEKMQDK
Description: Inhibition Assay: Compounds were received in lyophilized form and stored at −20° C. Stock solutions were made by weighing out the compounds and dissolving them in dimethyl sulfoxide (DMSO) to a standard concentration, usually 20 mM, and stored at −20° C. […] Diluted 100% DMSO was used as a negative control.
5 μl of each compound dilution were robotically pipetted to Costar serocluster plates maintaining the same plate format. All assays consisted of the following volumes: • 5 μl diluted compound • 10 μl enzyme preparation • 5 μl substrate • 5 μl assay ATP and were then incubated 15 min at room temperature.
From each reaction, 10 μl of reaction mix was spotted onto Millipore Multiscreen-PH opaque plates and washed 2×10 min in 1% phosphoric acid. The plates were dried for at 40° C. for 30 min, then the substrate phosphate complexes were quantitated by scintillation counting. These Millipore plates are in a 96 well format with immobilized P81 phosphocellulose membranes. Both the phosphorylated and non-phosphorylated form of the substrate bind to the membrane while ATP (unincorporated phosphate) is removed in the subsequent wash steps.
Integrin Linked Kinase: The target integrin linked kinase is a full-length recombinant protein expressed in sF9 insect cells by baculovirus infection. The ILK1 substrate is […]-amide.
Recombinant ILK protein was expressed using cultured insect cells and a baculovirus expression system.
A large scale plasmid preparation of the resulting transfer construct was made using a Qiagen Plasmid Midi Kit. This ILK transfer construct was then co-transfected with BaculoGold DNA (Pharmingen) into Sf9 insect cells (Invitrogen) and a high titre preparation of GST-ILK recombinant baculovirus was produced by amplification in Sf9 cells. Liter scale expression of GST-ILK recombinant protein was done in 1000 ml spinner flasks (Bellco) by infection of Hi5 insect cells (invitrogen) grown in Ex-Cell 400 Serum Free Media (JRH Biosciences) at a multiplicity of infection of approximately 5. The cells were harvested three days after infection and lysed in Hypotonic Lysis Buffer (HLB; 10 mM imidazole, 5 mM EDTA, 0.1% β-mercaptoethanol, 10 ug/ml PMSF, 1 mM benzamidine) by sonication. The lysate was centrifuged at 10,000×g for 20 min and the supernatant was discarded. The pellet was washed twice in HLB and then washed twice in High Salt Buffer (HSB; 500 mM NaCl, 10 mM imidazole, 5 mM EDTA, 0.1% β-mercaptoethanol, 10 ug/mI PMSF, 1 mM benzamidine). The pellet was then resuspended in DNAse-ATP Buffer (DAB; 10 mM MgCl2, 1 mM MnCl2, β-methyl aspartic acid, 2 mM NaF, 0.55 mg/ml ATP, 1 ug/ml DNAse l, 1% NP-40, 10 mM imidazole, 5 mM EDTA, 0.1% β-mercaptoethanol, 10 ug/ml PMSF, 1 mM benzamidine) and stirred for 30 min at room temperature, and then centrifuged at 10,000×g for 20 min. The pellet was resuspended in High Salt Detergent buffer (HDB; 1% NP-40, 1% Triton X-100, 500 mM NaCl, 10 mM imidazole, 5 mM EDTA, 0.1% β-mercaptoethanol, 10 ug/ml PMSF, 1 mM benzamidine), stirred for 30 min at room temperature, and then centrufuged at 10,000×g for 20 min. The pellet was then washed once in each of HDB, HSB, and HLB, centrifuging at 10,000×g each time. Finally, the pellet was resuspended in HLB.

[3] = target: GSK3β (Homo sapiens, UniProt P49841); assay: Protein kinase selectivity, GSK3β; assay type: biochemical
Sequence of GSK3β (P49841 whole entry, species assumed): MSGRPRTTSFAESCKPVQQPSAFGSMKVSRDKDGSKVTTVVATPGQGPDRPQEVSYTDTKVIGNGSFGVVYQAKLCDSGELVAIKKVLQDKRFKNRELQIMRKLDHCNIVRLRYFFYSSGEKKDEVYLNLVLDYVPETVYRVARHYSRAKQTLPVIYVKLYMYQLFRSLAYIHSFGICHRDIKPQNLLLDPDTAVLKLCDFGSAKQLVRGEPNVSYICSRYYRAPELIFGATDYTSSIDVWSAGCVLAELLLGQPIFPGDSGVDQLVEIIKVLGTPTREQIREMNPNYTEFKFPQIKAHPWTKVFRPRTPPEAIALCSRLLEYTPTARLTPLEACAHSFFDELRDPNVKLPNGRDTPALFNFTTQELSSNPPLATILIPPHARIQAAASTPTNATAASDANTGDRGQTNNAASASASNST

Compound | Survival (%) [1] | inhibition at 0.1 µM ([2]; 0.1 μM, corrected against the maximum observed inhibition) | inhibition at 0.3 µM ([2]; 0.3 μM, corrected against the maximum observed inhibition) | inhibition at 0.7 µM ([2]; 0.7 μM, corrected against the maximum observed inhibition) | inhibition at 1.6 µM ([2]; 1.6 μM, corrected against the maximum observed inhibition) | inhibition at 4.1 µM ([2]; 4.1 μM, corrected against the maximum observed inhibition) | inhibition at 10.2 µM ([2]; 10.2 μM, corrected against the maximum observed inhibition) | inhibition at 25.6 µM ([2]; 25.6 μM, corrected against the maximum observed inhibition) | inhibition at 64 µM ([2]; 64.0 μM, corrected against the maximum observed inhibition) | inhibition at 160 µM ([2]; 160.0 μM, corrected against the maximum observed inhibition) | inhibition at 400 µM ([2]; 400.0 μM, corrected against the maximum observed inhibition) | inhibits ILK at [2] | Inhibition of GSK3β (in words) [3]
N=C(N)N/N=C/c1ccc(Cl)cc1Cl [KP-16735] | 49% | 13% | -1% | 4% | 18% | 32% | 69% | 85% | 99% | 102% | 99% | – | –
Oc1ccc2c(c1)CC1NCCc3cc(O)c(O)c-2c31 (centres unmarked) [KP-21849, 5,6,6a,7-Tetrahydro-4H-dibenzo[de,g]quinoline-1,2,9-triol] | 44% | – | – | – | – | – | – | – | – | – | – | 2 µM | does not significantly inhibit
